Source: the OligoGym collection
“And” between values parts separate entries of the source, which are not always exact repeats. Equal entries are not always repeated. After the bases stand the sugars from the 5' end (letter, count) and the backbone: PS all phosphorothioate, else s phosphorothioate and o phosphodiester by linkage. Methylation of C is not given here. e = 2'-O-(2-methoxyethyl) (MOE); d = 2'-deoxy (DNA)

Target: DGAT2
Conditions: ASO

Sequence | target mRNA inhibition (HepG2, 0.12 µM) | target mRNA inhibition (HepG2, 2.5 µM) | target mRNA inhibition (HepG2, 10 µM) | target mRNA inhibition (HepG2, 20 µM)
GTTCTTTTGGAAGGGTGGAG (sugars e5 d10 e5, PS) | 52% |  |  | 
GCAGGTTGTGTGTCTTCACC (sugars e2 d13 e5, PS) | 56% |  |  | 
TCCATGTCAGAGAGGCTCAG (sugars e5 d10 e5, PS) |  | 54% | 91% | 
ATGGTGTGTTGGCTCCCTGT (sugars e5 d10 e5, PS) |  | 53% | 53% | 
AGTTTCACAAAGCCCTTGCG (sugars e5 d10 e5, PS) | 25% |  |  | 
GAGTAAGGGTATTCTGCTCA (sugars e5 d10 e5, PS) |  |  | 91% and 93% and 96% | 
GTTTACTGCATAGCTGAGCA (sugars e5 d10 e5, PS) |  | 69% and 82% | 79% and 96% | 
GGTTTACTGCATAGCTGAGC (sugars e5 d10 e5, PS) |  | 79% and 72% | 86% and 76% | 
GCCACCTGCTTTGGAACTAA (sugars e5 d10 e5, PS) | 41% |  |  | 
TCAGAGACTCAGCCGCACCC (sugars e5 d10 e5, PS) | 43% and 55% |  |  | 
GACCCACTGGAGCACTGAGA (sugars e3 d14 e3, PS) | 56% |  |  | 
GGAGCTCAGAGACTCAGCCG (sugars e5 d10 e5, PS) | 73% |  |  | 
GCTGCATCCATGTCATCAGC (sugars e2 d16 e2, PS) | 53% |  |  | 
GCAGCCTGGACAAGTCCTGC (sugars e5 d10 e5, PS) | 70% |  |  | 
GGAAAACTTAGGCATGCTTC (sugars e5 d10 e5, PS) |  | 64% and 72% | 90% and 87% | 
CTGGTCCAGGGAGAGACCAA (sugars e5 d10 e5, PS) | 25% |  |  | 
GCTACTGGCATTGCTCCTCC (sugars e5 d10 e5, PS) |  | 42% | 81% | 
CCTCCAGGACCTCAGTCTCC (sugars e5 d10 e5, PS) | 66% |  |  | 
TCTCCTGTTTGATGGGT (sugars e3 d10 e4, PS) |  | 41% | 63% | 
GCTCAGAGACTCAGCCGCAC (sugars e3 d14 e3, PS) | 69% |  |  | 
AAAACCAGTTACTCCACCTA (sugars e5 d10 e5, PS) | 0% |  |  | 
TCAGCAGGTTGTGTGTCTTC (sugars e5 d10 e5, PS) | 56% | 3% |  | 
TTTAAATAACCCACAGACAC (sugars e5 d10 e5, PS) | 14% |  |  | 

Sequence | target mRNA inhibition (HepG2, 0.12 µM) | target mRNA inhibition (HepG2, 2.5 µM) | target mRNA inhibition (HepG2, 10 µM) | target mRNA inhibition (HepG2, 20 µM)
CGCAGGACCCCGGAGTAGGC (sugars e5 d10 e5, PS) | 75% and 70% |  |  | 
CACTGGAGCACTGAGATGAC (sugars e2 d13 e5, PS) | 61% |  |  | 
ATACCTTATCTTTGTCCACA (sugars e5 d10 e5, PS) |  | 79% | 94% | 
GTACACTTCATTCTCTCCAA (sugars e5 d10 e5, PS) | 82% |  |  | 
AGTCACTGACTCACAACAGC (sugars e5 d10 e5, PS) |  | 45% | 83% | 
TGGCTCTCTAGATAGGGTGG (sugars e5 d10 e5, PS) |  | 84% and 85% | 89% and 87% | 
AAGGGTATTCTGCTCATAAA (sugars e5 d10 e5, PS) |  | 48% | 88% | 
GCAGGTTGTGTGTCTTCACC (sugars e3 d14 e3, PS) | 69% |  |  | 
TGGAGCTCAGAGACTCAGCC (sugars e3 d14 e3, PS) | 76% |  |  | 
AAACACCAGCCAAGTGAAGT (sugars e5 d10 e5, PS) | 9% |  |  | 
ATCACAGAATTATCAGCAGT (sugars e5 d10 e5, PS) |  | 59% | 92% | 
TAGGCTTTAGAAATTCACCA (sugars e5 d10 e5, PS) |  | 71% and 72% and 76% | 89% and 82% and 91% | 
TTAAAAAAGACCTAACATTG (sugars e5 d10 e5, PS) | 0% |  |  | 
CAGGCAGCCTGAAGGACACT (sugars e5 d10 e5, PS) | 49% |  |  | 
AGTCTTCCTTCTCCTCCACC (sugars e5 d10 e5, PS) |  | 69% | 84% | 
AGGCATGCTTCCTCCCACTT (sugars e5 d10 e5, PS) |  | 53% | 85% | 
GTGTGTCTTCACCAGCTGGA (sugars e5 d10 e5, PS) | 53% |  |  | 
GTGCTTTCTAAGTACCCTTT (sugars e5 d10 e5, PS) |  | 81% and 78% | 92% and 89% | 
TTGCTCAGTTCTTCCAACCA (sugars e5 d10 e5, PS) |  | 81% and 72% | 93% and 94% | 
TGAGGCCCTTCAGCTTGTGC (sugars e5 d10 e5, PS) | 49% |  |  | 
CTGGAACTTCTTCTGGACCC (sugars e5 d10 e5, PS) | 25% |  |  | 
CACCAGGGCCTCCATGTACA (sugars e5 d10 e5, PS) |  | 31% | 69% | 26%
GGTAAGGCCGTATGCCTGGG (sugars e2 d13 e5, PS) | 53% |  |  | 

Sequence | target mRNA inhibition (HepG2, 0.12 µM) | target mRNA inhibition (HepG2, 2.5 µM) | target mRNA inhibition (HepG2, 10 µM) | target mRNA inhibition (HepG2, 20 µM)
GCGATTCACTGAGGACC (sugars e3 d10 e4, PS) |  |  | 68% and 86% | 
ACACCAGGATCTCAGTCACT (sugars e5 d10 e5, PS) | 42% |  |  | 
GGCTGAGTCTGTGCTGCATC (sugars e5 d10 e5, PS) |  | 85% and 65% | 81% | 
TTCTGGACCCATCGGCCCCA (sugars e5 d10 e5, PS) | 27% |  |  | 
CAGGTAAGGCCGTATGCCTG (sugars e2 d13 e5, PS) | 59% |  |  | 
AAAGCAAATAGTCTATGGTG (sugars e5 d10 e5, PS) | 46% |  |  | 
CAGGCAGGTGTCAGAGGGCT (sugars e5 d10 e5, PS) | 21% |  |  | 
GGTTCTTGTCCTGGTCCCAG (sugars e5 d10 e5, PS) |  | 75% and 77% | 90% and 94% | 
GGACCCACTGGAGCACT (sugars e3 d10 e4, PS) |  | 57% | 93% | 
CGCGCAGGACCCCGGAGTAG (sugars e5 d10 e5, PS) | 74% |  |  | 
CCTCAGGAAGGCACAGAAAA (sugars e5 d10 e5, PS) | 40% |  |  | 
TAGGCATGCTTCCTCCCACT (sugars e5 d10 e5, PS) |  | 65% | 84% | 
CCTTAGCTTTAATCCAGGAT (sugars e5 d10 e5, PS) |  | 70% | 89% | 
CTTATCCTTGAGGGTCTCAT (sugars e5 d10 e5, PS) |  | 56% | 77% | 
TCAAACCTAGGTTCAGACTT (sugars e5 d10 e5, PS) | 47% |  |  | 
CTTCACCAGCTGGATGGGAA (sugars e5 d10 e5, PS) | 36% |  |  | 
CTGTGGCACTAAGCTAGGCA (sugars e5 d10 e5, PS) |  | 64% | 82% | 
AGTAAGCCTCGGTGTCCTCT (sugars e5 d10 e5, PS) |  | 61% and 76% and 75% | 92% and 91% and 95% | 
GTTTAGGCTATGGTCTGAGC (sugars e5 d10 e5, PS) |  | 85% and 75% | 92% | 
AAAACTTAGGCATGCTTCCT (sugars e5 d10 e5, PS) |  | 53% | 83% | 
CCTAAGGAGTGAGGGTATCT (sugars e5 d10 e5, PS) |  | 39% and 50% | 87% and 92% | 
TCAGCAGGTTGTGTGTCTTC (sugars e2 d13 e5, PS) | 57% |  |  | 
TGCCACAGGGCCCTTTCCAG (sugars e5 d10 e5, PS) |  | 11% | 67% | 

Sequence | target mRNA inhibition (HepG2, 0.12 µM) | target mRNA inhibition (HepG2, 2.5 µM) | target mRNA inhibition (HepG2, 10 µM) | target mRNA inhibition (HepG2, 20 µM)
CAGGACCCACTGGAGCACTG (sugars e2 d13 e5, PS) | 78% |  |  | 
AATTTCTTTTAAATAACCCA (sugars e5 d10 e5, PS) | 0% |  |  | 
TCCGGACTGAATGTCACCTC (sugars e5 d10 e5, PS) |  | 75% | 85% and 90% | 
CCCCCATCCTCATCCTGGAG (sugars e5 d10 e5, PS) | 7% |  |  | 
GTTCTTGTCCTGGTCCCAGT (sugars e5 d10 e5, PS) |  | 83% and 68% | 95% and 93% | 
CCTCCAGACATCAGGTACTC (sugars e5 d10 e5, PS) | 29% |  |  | 
GAAATCTGAGTGCTGCTAAC (sugars e5 d10 e5, PS) |  | 71% | 91% | 
TGCAGCCTGGACAAGTCCTG (sugars e3 d14 e3, PS) | 77% | 27% | 51% | 68%
CTGGTGGTCAGCAGGTTGTG (sugars e5 d10 e5, PS) | 57% |  |  | 
TAGCTCTCAGTGAAGCTGGA (sugars e5 d10 e5, PS) |  | 84% and 81% | 90% and 91% | 
AGCACTGACATGGTAAGTCC (sugars e5 d10 e5, PS) |  | 75% and 68% | 93% and 91% | 
AGAGGTTCAACATCCAATTT (sugars e5 d10 e5, PS) |  | 0% | 86% | 
ATGCCTGAGGGCAGCAGTGT (sugars e5 d10 e5, PS) | 45% |  |  | 
TGGAGCTCAGAGACTCAGCC (sugars e2 d13 e5, PS) | 82% |  |  | 
CAACAGGCTCTGGTTCCATG (sugars e5 d10 e5, PS) | 56% |  |  | 
AGTAGTCTCGAAAGTAGCGC (sugars e5 d10 e5, PS) | 39% |  |  | 
CATTGCCACTCCCATTCTTT (sugars e2 d13 e5, PS) | 40% |  |  | 
CAGCTGGATGGGAAAGTAGT (sugars e5 d10 e5, PS) | 21% |  |  | 
GGACCCACTGGAGCACTGAG (sugars e2 d13 e5, PS) | 86% | 24% | 28% | 67%
CACTTGCTTGAGGTCAGGGT (sugars e5 d10 e5, PS) |  | 81% and 75% | 81% and 74% | 
TATAATTTCTTTTAAATAAC (sugars e5 d10 e5, PS) | 0% |  |  | 
TCTTTTAAATAACCCACAGA (sugars e5 d10 e5, PS) | 10% |  |  | 
